# Data published in patent US20040197341A1, “Therapeutic process for p. aeruginosa infections using macrolide antibiotics” (priority 2004, published 2004).
# How the values were obtained:
# [1] = test system: P. aeruginosa strain PAO1; experiment: Cell growth of P. aeruginosa PAO1 in LB medium (turbidity at 660 nm) and SDS-PAGE of total protein extracts; format: cell-based
# Procedure: P. aeruginosa strain PAO1 was grown for a total of 10 hours on Luria-Bertani (LB) medium containing 2, 3, 4 and 5 μg/ml of azithromycin, respectively. The cell growth in the media was measured by optical absorbance measurements (turbidity) at 660 nm in intervals of 2 h.
# [2] = in vivo; cited from earlier work
# C4-HSL = experiment: Production of C4-HSL autoinducer, specific bioassay of ethyl acetate extracts of supernatants; format: cell-based, P. aeruginosa; details: 2 μg/ml, LB medium, 12 hours, strain PAO1
# Procedure: (§1) P. aeruginosa strain PAO1 was grown in LB medium for 12 hours either in the absence or presence of 2 μg/ml of azithromycin. The formed 3-oxo-C12—HSL and C4—HSL autoinducers were extracted from the supernatants of both cultures with ethyl acetate and their respective concentrations were measured using specific bioassays (Pearson, J. P., Pesci, E. C., Iglewski, B. H., J. Bacteriol. 1997, 179, 3127-3132; Seed, P. C, Passador, L., Iglewski, B. H., J. Bacteriol. 1995, 177, 654-659). The results are plotted in FIG. 3 a). In the presence of the macrolide the concentrations of 3-oxo-C12-HSL and C4-HSL were reduced by 94 and 72%, respectively.
# [3] = test system: P. aeruginosa strain PAO1; experiment: Growth curves (optical density at 660 nm) in the elastase production experiment; format: cell-based; details: 2 μg/ml, broth medium, 16 hours
# Procedure: P. aeruginosa strain PAO1 was grown over a total of 16 hours in broth medium either without azithromycin or with 2 μg/ml azithromycin. Samples of the supernatants of both cultures were taken in intervals of 4 hours and the activity of elastase in the samples was determined using elastin Congo red assays (Pearson, J. P., Pesci, E. C., Iglewski, B. H., J. Bacteriol. 1997, 179, 5756-5767). The measured elastase activity was plotted against the sampling times, giving FIG. 1b).
# 3-oxo-C12-HSL = experiment: Production of 3-oxo-C12-HSL autoinducer, specific bioassay of ethyl acetate extracts of supernatants; format: cell-based, P. aeruginosa; details: 2 μg/ml, LB medium, 12 hours, strain PAO1
# Procedure: as §1
# [4] = test system: lasR, rhlR, lasI and rhlI genes; experiment: lacZ reporter fusions of lasR, rhlR, lasI, rhlI, beta-Gal activity; format: cell-based, P. aeruginosa; details: 2 μg/ml azithromycin, 10 h
# Procedure: Cultures of P. aeruginosa strain PAO1, harbouring the fusion gene of lasR′ with lacZ reporter (pPCS10011; Pesci, E. C., Pearson, J. P., Seed, P. C., Iglewski, B. H., J. Bacteriol. 1997, 179, 3127-3132), or the fusion gene of rhlR′ with lacZ (pPCS1002; ibid.), or the fusion gene of lasI′ with lacZ (pPCS223; Van Delden, C., Pesci, E. C., Pearson, J. P., Iglewski, B. H., Infect. Immun. 1998, 66, 4499-4502), or the fusion gene of rhlI′ with lacZ (pLPRI; ibid.) were grown for 10 h in broth medium either in the absence or presence of 2 μg/ml azithromycin and the β-Gal activity was then determined. The results for lasR and rhlR are shown in FIG. 2a) and for lasI and rhlI in FIG. 2b) (plotted bars are the mean ±SD of 6 individual experiments each).
# rhlAB operon = experiment: rhlA'-lacZ reporter (pECP60) expression of the rhlAB operon, beta-Gal activity, with growth curves; format: cell-based, P. aeruginosa; details: 2 μg/ml, LB medium, 16 hours
# Procedure: P. aeruginosa strain PAO1, harbouring the fusion gene pECP60 of rhlA′ with the lacZ reporter (Pesci, E. C., Pearson, J. P., Seed, P. C., Iglewski, B. H., J. Bacteriol. 1997, 179, 3127-3132), was grown for 16 hours in LB medium either in the absence or presence of 2 μg/ml azithromycin and the activity of β-galactosidase (β-Gal) (Miller, J. H., “Experiments in Molecular Genetics”, p. 352-355. Cold Spring Harbor Laboratory, Cold Spring Harbor, N.Y.) was measured in both cultures in intervals of 4 hours. The results of 6 experiments (mean±SD) for each culture were plotted against sampling time (FIG. 1c).
# [5] = test system: P. aeruginosa strain PAO1; experiment: Qualitative rhamnolipid plate assay on M9-based agar with azithromycin gradient; format: cell-based; details: gradient from 0 μg/ml to 20 μg/ml in agar
# Procedure: P. aeruginosa strain PAO1 was grown on M9-based agar plates (Siegmund, I., Wagner, F., Biotechnol. Tech. 1991, 5, 265-268) into which a gradient of azithromycin from 0 μg/ml to 20 μg/ml was incorporated. The qualitative Rhamnolipid® plate assay was used.
# C4-HSL autoinducer = details: 50 μg of erythromycin/ml; cited from earlier work
# P. aeruginosa strains = details: clinical trials; cited from earlier work
# [6] = 2 μg of azithromycin/ml, LB medium, strain PAO1
compound,measurement,setting,value
CC[C@H]1OC(=O)[C@H](C)[C@@H](O[C@H]2C[C@@](C)(OC)[C@@H](O)[C@H](C)O2)[C@H](C)[C@@H](O[C@@H]2O[C@H](C)C[C@H](N(C)C)[C@H]2O)[C@](C)(O)C[C@@H](C)CN(C)[C@H](C)[C@@H](O)[C@]1(C)O [azithromycin],effect on exponential growth,[1]; [6],slightly affected
same,effect on the stationary growth phase,[1]; [6],no effect
same,inhibition of PAO1,[1]; in vitro concentration 2 μg/ml,does not inhibit PAO1
same,distribution between body tissues and serum/plasma,[2],tends to accumulate in body tissues
same,reduction of C4-HSL concentration,C4-HSL,72%
same,influence on the growth (optical density at 660 nm),[3],no significant influence
same,reduction of 3-oxo-C12-HSL concentration,3-oxo-C12-HSL,94%
same,restoration of lasI expression by co-addition of exogenous autoinducers,[4]; 10 μM exogenous autoinducers,could not restore
same,effect on lasR and rhlR expression on co-adding exogenous 3-oxo-C12-HSL and C4-HSL,[4]; autoinducers 10 μM each,almost completely compensated
same,influence on the growth (optical density at 660 nm),rhlAB operon,no significant influence
same,growth on rhamnolipid plates,[5],without a parallel drop in growth
same,production of rhamnolipids,[5],progressively decreased
CC[C@H]1OC(=O)[C@H](C)[C@@H](O[C@H]2C[C@@](C)(OC)[C@@H](O)[C@H](C)O2)[C@H](C)[C@@H](O[C@@H]2O[C@H](C)C[C@H](N(C)C)[C@H]2O)[C@](C)(O)C[C@@H](C)C(=O)[C@H](C)[C@@H](O)[C@]1(C)O [erythromycin],autoinducer production,C4-HSL autoinducer,reduction
CC[C@H]1OC(=O)[C@H](C)[C@@H](O[C@H]2C[C@@](C)(OC)[C@@H](O)[C@H](C)O2)[C@H](C)[C@@H](O[C@@H]2O[C@H](C)C[C@H](N(C)C)[C@H]2O)[C@](C)(OC)C[C@@H](C)C(=O)[C@H](C)[C@@H](O)[C@]1(C)O [clarithromycin],effect on the viability of the microorganism,P. aeruginosa strains,no effect
